Experiments:
[1] = In vivo chicken embryo toxicity assessment (CAM assay); settings: chicken, embryo
MCF-7 cells [2] = test: 2D colony formation, MCF-7; assay type: cell-based, human
Excerpt: FIGS. 2A and 2B show the effect of Compound [I] at different concentrations on MCF-7 colony formation (A) in petri dishes, and (B) expressed in terms of colony formation relative to the control.
(§1) FIGS. 5A and 5B show IC50 curves for Compound [I] calculated using GraphPad Prism. The results are based on mammosphere formation assay of Compound [I] on both colonies and spheres, for MCF-7 cells (FIG. 5A), and for MDA-MB-231 cells (FIG. 5B).

MCF-7 cells [3] = test: 3D anchorage independent growth (mammosphere formation) assay, MCF-7; assay type: cell-based, human
Excerpt: The following paragraphs summarize data for Compound [I]. It should be appreciated that preliminary results for other embodiments are consistent with the results for Compound [I], but analysis is ongoing. FIGS. 1A-1C show mammosphere formation results, SRB assay results on MCF-7 cells, and SRB assay results on BJ1-hTERT cells, for different concentrations of Compound [I]. The asterisks indicate P-value, with ** indicating P<0.01, *** indicating P<0.001, and **** indicating P <0.0001. […] FIGS. 1B and 1C show results of the SRB assay for (B) MCF-7 cells and (C) hTERT-BJ1 cells.
as §1
(§2) 3D Anchorage Independent Growth Assay: This assay is also referred to as the mammosphere formation assay. A single-cell suspension was prepared using enzymatic, and manual disaggregation (25-g needle). Then, cells were plated at a density of 500 cells/cm^2 in mammosphere medium (DMEM-F12+1× B-27 Plus Supplement+20 ng/ml EGF+Pen/Strep) under non-adherent conditions, in culture dishes pre-coated with (2-hydroxyethylmethacrylate) (poly-HEMA, Sigma Aldrich Inc.), called “mammosphere plates.” Cells were grown for 5 days and maintained in a humidified incubator at 37 °C. After 5 days of culture, 3D-mammospheres >50 μm were counted using an eye piece (“graticule”), and the percentage of cells plated which formed spheres was calculated and is referred to as percent mammosphere formation, and was normalized to one (1=100% MFE). 3D mammosphere formation efficiency (MFE) was analyzed in both the ATP-low and ATP-high sub-populations of cells. All 3D mammosphere experiments were performed in triplicate, at least 3 times independently.

MCF-7 cells [4] = test: SRB cell viability assay, MCF-7; assay type: cell-based; settings: Homo sapiens, MCF7, cytotoxic starting at, FIG. 1B, read-out: concentration at which cytotoxicity starts
Excerpt: (§3) The mitochondria specific transcription inhibitor (MSTI) compounds disclosed herein represent a new class of compounds having exceptional selectivity and activity towards cancer cells. Embodiments of the MSTI compounds disclosed herein may be used as therapeutic agent to selectively eradicate CSCs for treating and/or preventing tumor recurrence and/or metastasis. […] This assay measures the amount of residual protein that adheres to tissue culture dishes and is a surrogate marker of cell viability.
(§4) Reagents and Model Cell Lines: It should be apparent that other cell lines may be used without departing from the present approach. The human breast adenocarcinoma cell line MCF-7 was from the American Type Culture Collection (ATCC). hTERT-BJ1 cells were from Clontech, Inc. MCF-7 and hTERT-BJ 1 cells were grown in DMEM supplemented with 10% fetal bovine serum, GlutaMAX and 1% penicillin-streptomycin and incubated at 37C in a humidified 5% C02 incubator. The medium was changed 2-3 times/week.
(§5) The present approach includes methods of confirming cell viability. Persons of skill in the art may select one or more methods for confirming cell viability suitable for the particular embodiment. […] Finally, the protein-bound dye was dissolved in a 10 mM Tris, pH 8.8 solution and read using the plate reader at 540-nm. […]

MDA-MB-231 cells [5] = test: 2D colony formation, MDA-MB-231; assay type: cell-based
Excerpt: FIGS. 4A and 4B show the effect of Compound [I] at different concentrations on MDA-MB-231 colony formation (A) representative phase images of 2D-colonies, and (B) expressed in terms of colony formation relative to the control. […] Bar graphs are shown as the mean±SEM; t-test, two-tailed test: **** P<0.0001.
as §1

MDA-MB-231 cells [6] = test: 3D anchorage independent growth (mammosphere formation) assay, MDA-MB-231; assay type: cell-based
Method: Bar graphs are shown as the mean±SEM; t-test, two-tailed test: * P<0.05, ** P<0.01, **** P<0.0001.
as §1, §2

[7] = SRB cell viability assay, hTERT-BJ1; assay type: cell-based; settings: human, hTERT-BJ1 cells, cytotoxic starting at about, FIG. 1C, read-out: concentration at which cytotoxicity starts
Excerpt: as §3, §4, §5

chicken embryo = test: In vivo chicken embryo toxicity assessment (CAM assay)
MCF-7 cells [8] = test: Extracellular acidification rate (ECAR), glycolytic function, MCF-7; assay type: cell-based, human
Excerpt: FIGS. 7A-7D show glycolytic function, glycolysis, glycolytic capacity, and glycolytic reserve, respectively, for different concentrations of Compound [I] on MCF-7 cells.

MDA-MB-231 cells [9] = test: Chorio-allantoic membrane (CAM) assay in chicken eggs, tumor growth; assay type: in vivo; settings: daily for 8 days; tumors weighed day E18; FIG. 8A
Method: The well-established chorio-allantoic membrane (CAM) assay in chicken eggs were used to quantitatively measure tumor growth in MDA-MB-231 cells. An inoculum of 1×10^6 MDA-MB-231 cells was added onto the Upper CAM of each egg on Day 9 and then eggs were then randomized into groups. On day 10, tumors were detectable and were then treated daily for 8 days with vehicle alone (1% DMSO in PBS), or Compound [I]. After 8 days of drug administration, on day E18, all tumors were weighed. […] Bar graphs are shown as the mean±SEM; t-test, two tailed test: * P<0.05, **** P<0.0001.

MDA-MB-231 cells [10] = test: CAM assay in chicken eggs, spontaneous tumor metastasis (qPCR of human Alu sequences); assay type: in vivo; settings: daily for 8 days, Lower CAM, FIG. 8B
Method: The CAM assay was used in chicken eggs to quantitatively measure spontaneous tumor metastasis in MDA-MB-231 cells. An inoculum of 1×10^6 MDA-MB-231 cells was added onto the Upper CAM of each egg on Day 9 and then eggs were then randomized into groups. On day 10, tumors were detectable and they were then treated daily for 8 days, with vehicle alone (1% DMSO in PBS), or Compound [I]. After 8 days of drug administration, the Lower CAM was collected to evaluate the number of metastatic cells and analyzed by qPCR with specific primers for Human Alu sequences. […] Bar graph is shown as the mean±SEM; t-test, two tailed test: ns P >0.05, ** P <0.01.

MCF-7 cells [11] = test: Seahorse XF96 oxygen consumption rate (OCR), mitochondrial respiration, MCF-7; assay type: cell-based, human
Method: FIGS. 6A-6D show mitochondrial respiration, basal respiration, maximal respiration, and ATP production, respectively, for different concentrations of Compound [I] on MCF-7 cells. The metabolic profile MCF-7 was performed using the Seahorse XF96 Analyzer after 6 days of treatment with Compound [I].

mice = settings: oral; four-week trial in mice; cited from earlier work
[12] = test system: mitochondrial RNA polymerase (POLRMT); settings: as a POLRMT inhibitor; cited from earlier work
[13] = test system: human cancer cell xenografts; settings: oral; cited from earlier work

In the case of CCN(CC(=O)NCCN(C)C)C(=O)[C@@H](C)Oc1ccc2c(-c3ccc(NC(=O)CCCCCCCCCCC[P+](c4ccccc4)(c4ccccc4)c4ccccc4)cc3Cl)cc(=O)oc2c1.[Cl-] [Compound [I], [12-[3-chloro-4-[7-[(1R)-2-[2-[2-(dimethylamino)ethylamino]-2-oxo-ethyl]-ethyl-amino]-1-methyl-2-oxo-ethoxy]-2-oxo-chromen-4-yl]anilino]-12-oxo-dodecyl]-triphenyl-phosphonium chloride], the survival at 100 µM ([1]; 100 μM, read-out: % Alive) is reported as 100%, the mortality at 100 µM ([1]; 100 μM, read-out: % Dead) is reported as 0% and the survival at 250 µM ([1]; 250 μM, read-out: % Alive) is reported as 100%. For the same compound, the mortality at 250 µM ([1]; 250 μM, read-out: % Dead) was 0%, the survival at 500 µM ([1]; 500 μM, read-out: % Alive) was 87.5% and the mortality at 500 µM ([1]; 500 μM, read-out: % Dead) was 12.5%. For the same compound, the IC50 (MCF-7 cells [2]; Homo sapiens, MCF7, MCF-7 colonies, GraphPad Prism, FIG. 5A) was 0.7 µM, the IC100 (MCF-7 cells [2]; Homo sapiens, MCF7, complete inhibition, FIG. 2B, read-out: concentration from which MCF-7 colony formation is completely inhibited) was 2.5 µM and the inhibition at 2.5 µM (MCF-7 cells [3]; Homo sapiens, MCF7, 2.5 μM, FIG. 1A, read-out: inhibition of MCF-7 spheres) was > 50%. For the same compound, the IC50 (MCF-7 cells [3]; Homo sapiens, MCF7, MCF-7 spheres, GraphPad Prism, FIG. 5A) was 3.2 µM, the MCC (MCF-7 cells [4]) was 1000 nM and the IC50 (MDA-MB-231 cells [5]; Homo sapiens, MDA-MB-231 colonies, GraphPad Prism, FIG. 5B) was 1.5 µM. It also gave an IC50 (MDA-MB-231 cells [6]; Homo sapiens, MDA-MB-231 spheres, GraphPad Prism, FIG. 5B) of 8.2 µM and an MCC [7] of ~2500 nM.

For CCN(CC(=O)NCCN(C)C)C(=O)[C@@H](C)Oc1ccc2c(-c3ccc(NC(=O)CCCCCCCCCCC[P+](c4ccccc4)(c4ccccc4)c4ccccc4)cc3Cl)cc(=O)oc2c1.[Cl-] [Compound [I]], the Alive (chicken embryo; 100 μM, of 17 embryos) was 17, the Dead (chicken embryo; 100 μM, of 17 embryos) was 0 and the Alive (chicken embryo; 250 μM, of 16 embryos) was 16. For the same compound, the Dead (chicken embryo; 250 μM, of 16 embryos) was 0, the Alive (chicken embryo; 500 μM, of 16 embryos) was 14 and the Dead (chicken embryo; 500 μM, of 16 embryos) was 2. The “toxicity towards normal cells” value (chicken embryo; at concentrations several orders of magnitude above those with potent activity, FIG. 9) was “not toxic towards normal cells”, the MCF-7 colony formation (MCF-7 cells [2]; 2D colonies, FIG. 2A) was “significantly decreased” and the “effect on colony formation versus sphere formation” value (MCF-7 cells [2]; MCF-7, from IC50 values of Table 1) was “more effective on colony formation, as compared to sphere formation”. The “inhibition of MCF-7 spheres” value (MCF-7 cells [3]; 10 μM, FIG. 1A) was “near complete inhibition”, the “inhibition of MCF-7 spheres” value (MCF-7 cells [3]; at all concentrations, FIG. 1A) was “inhibition of MCF-7 spheres at all concentrations” and the glycolysis (MCF-7 cells [8]; FIG. 7B) was “No significant changes”. For the same compound, the glycolytic capacity (MCF-7 cells [8]; FIG. 7C) was “No significant changes”, the glycolytic reserve (MCF-7 cells [8]; FIG. 7D) was “No significant changes” and the “glycolysis (overall conclusion)” value (MCF-7 cells [8]; FIGS. 7A-7D) was “does not affect glycolysis”. For the same compound, the tumor growth (MDA-MB-231 cells [9]) was “potently inhibits tumor growth”, the MDA-MB-231 colony formation (MDA-MB-231 cells [5]; 2D colonies, FIGS. 4A-4B, **** P<0.0001) was “significantly decreases” and the “effect on colony formation versus sphere formation” value (MDA-MB-231 cells [5]; MDA-MB-231, from IC50 values of Table 1) was “more effective on colony formation, as compared to sphere formation”. The “MDA-MB-231 3D mammosphere formation” value (MDA-MB-231 cells [6]; FIG. 3A) was “significantly decreased”, the metastasis (MDA-MB-231 cells [10]) was “targets and prevent cancer metastasis” and the “oxygen consumption rate (OCR)” value (MCF-7 cells [11]; 0.5 μM and 1 μM, after 6 days of treatment, FIG. 6A) was “reduction”. For the same compound, the basal respiration (MCF-7 cells [11]; 0.5 μM and 1 μM, after 6 days of treatment, FIG. 6B) was “decreases”, the maximal respiration (MCF-7 cells [11]; 0.5 μM and 1 μM, after 6 days of treatment, FIG. 6C) was “decreases” and the ATP production (MCF-7 cells [11]; 0.5 μM and 1 μM, after 6 days of treatment, FIG. 6D) was “decreases”. The mitochondrial respiration (MCF-7 cells [11]; overall conclusion) was “specifically inhibits mitochondrial respiration”.

In the case of C[C@@H](Oc1ccc2c(-c3ccc(F)cc3Cl)cc(=O)oc2c1)C(=O)N1CCC[C@H](C(=O)O)C1 [POLRMT inhibitor], the “OXPHOS dysfunction or toxicity” value (mice) is given as “no evidence of OXPHOS dysfunction or toxicity”, the “mitochondrial DNA expression” value [12] is given as “inhibits mitochondrial DNA expression” and the anti-tumor effects [13] is given as “strong anti-tumor effects”.

Reference: patent publication US20260374793A1, “MITOCHONDRIA SPECIFIC TRANSCRIPTION INHIBITORS” (LUNELLA BIOTECH, INC., priority 2023, published 2026)
